A word on the IC50: it is the concentration needed to halve the response being measured.

Experiment [1] has as its target T1, AHR (Homo sapiens, UniProt P35869).
T1 construct: U87 MG glioblastoma cells (ATCC #HTB-14) endogenously expressing AHR; endogenous in cells; host or cells: U87 MG glioblastoma cells (ATCC #HTB-14)
T1 sequence (P35869 11-848): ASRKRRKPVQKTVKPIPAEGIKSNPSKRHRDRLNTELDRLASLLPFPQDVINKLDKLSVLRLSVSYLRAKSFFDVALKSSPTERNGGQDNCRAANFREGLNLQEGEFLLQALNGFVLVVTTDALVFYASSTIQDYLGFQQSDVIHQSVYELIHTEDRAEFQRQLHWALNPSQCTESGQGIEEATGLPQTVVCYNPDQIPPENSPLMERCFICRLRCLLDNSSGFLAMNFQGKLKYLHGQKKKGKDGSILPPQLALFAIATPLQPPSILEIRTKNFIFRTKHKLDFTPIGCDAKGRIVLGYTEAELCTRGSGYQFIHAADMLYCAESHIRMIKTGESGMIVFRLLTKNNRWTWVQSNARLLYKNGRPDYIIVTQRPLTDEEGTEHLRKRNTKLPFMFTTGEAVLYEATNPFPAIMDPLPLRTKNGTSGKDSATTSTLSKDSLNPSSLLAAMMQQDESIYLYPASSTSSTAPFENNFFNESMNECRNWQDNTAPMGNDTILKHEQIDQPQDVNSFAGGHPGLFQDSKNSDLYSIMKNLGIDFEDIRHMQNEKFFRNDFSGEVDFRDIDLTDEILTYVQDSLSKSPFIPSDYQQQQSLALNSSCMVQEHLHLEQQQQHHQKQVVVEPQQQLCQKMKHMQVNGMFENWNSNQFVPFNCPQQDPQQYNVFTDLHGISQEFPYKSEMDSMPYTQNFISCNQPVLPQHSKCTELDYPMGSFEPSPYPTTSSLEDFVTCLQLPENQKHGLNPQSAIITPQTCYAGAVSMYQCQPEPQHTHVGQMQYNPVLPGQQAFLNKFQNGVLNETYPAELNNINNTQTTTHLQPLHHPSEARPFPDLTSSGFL
The experiment in a line: In vitro assay 1: antagonism in human cell line (AHR transactivation, firefly luciferase reporter, kynurenic acid prestimulated). It counts as cell-based. The note with it: AHR Antagonism Human IC50 [M]. The method, boiled down:
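Antagonism is measured against kynurenic acid prestimulation in U87 MG glioblastoma cells carrying stable DRE-luciferase and Renilla reporters. Positive inhibition control: 150 μM kynurenic acid with 5 μM staurosporine. Values are normalized to controls; repeats are averaged or given as medians.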

The target of experiment [2] is T2, AHR (Mus musculus, UniProt P30561).
T2 sequence (P30561 1-848 P471L/N533S/M589L): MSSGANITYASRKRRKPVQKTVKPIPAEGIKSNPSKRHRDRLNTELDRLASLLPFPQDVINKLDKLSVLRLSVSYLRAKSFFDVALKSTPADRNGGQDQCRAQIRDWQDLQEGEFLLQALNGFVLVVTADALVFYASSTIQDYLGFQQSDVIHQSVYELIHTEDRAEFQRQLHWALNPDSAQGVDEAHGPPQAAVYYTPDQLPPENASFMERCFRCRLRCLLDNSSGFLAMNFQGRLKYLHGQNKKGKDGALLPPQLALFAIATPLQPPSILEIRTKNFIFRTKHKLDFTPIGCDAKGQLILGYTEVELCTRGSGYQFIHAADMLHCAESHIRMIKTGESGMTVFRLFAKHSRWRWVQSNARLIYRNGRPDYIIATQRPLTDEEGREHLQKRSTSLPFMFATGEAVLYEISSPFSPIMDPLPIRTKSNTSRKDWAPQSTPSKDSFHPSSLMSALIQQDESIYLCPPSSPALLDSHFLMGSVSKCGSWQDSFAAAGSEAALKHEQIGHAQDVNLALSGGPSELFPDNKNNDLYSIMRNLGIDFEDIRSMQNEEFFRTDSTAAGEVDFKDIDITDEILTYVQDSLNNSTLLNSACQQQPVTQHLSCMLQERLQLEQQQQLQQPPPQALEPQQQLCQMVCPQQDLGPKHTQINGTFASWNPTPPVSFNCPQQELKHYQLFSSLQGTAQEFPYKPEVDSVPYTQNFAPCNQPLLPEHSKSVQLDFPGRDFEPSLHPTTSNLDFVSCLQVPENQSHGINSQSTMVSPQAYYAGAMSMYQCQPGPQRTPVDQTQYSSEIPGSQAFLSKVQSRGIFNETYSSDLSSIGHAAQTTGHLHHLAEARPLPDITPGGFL
Put plainly: In vitro assay 3: antagonism in mouse cell line (AHR transactivation, firefly luciferase reporter, kynurenic acid prestimulated). In kind it is cell-based. A digest of the protocol: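 Antagonism read as reduced firefly luciferase signal (SteadyGlo) from a stably transfected AHR/DRE reporter in a mouse line prestimulated with kynurenic acid. Data normalized to controls, the full-inhibition control being cells without kynurenic acid; multiple determinations given as average or median values.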
(A reporter such as luciferase makes a cellular process visible.)

Where [3] appears, read: mouse Hepa 1c1c7 cells, 200 μM kynurenic acid, 20 hours, read-out: AHR Antagonism Mouse IC50.
[4] abbreviates: Hepa 1c1c7 cells, 200 μM kynurenic acid, 20 hours, firefly luciferase reporter, read-out: AHR Antagonism Mouse IC50.

Each structure is given as a SMILES string. Where two headings read alike, the source gives them in different places.

As for `CC[C@@H](Nc1nc2ccccc2c2nc(-c3cc(Cl)ccc3OC(F)(F)F)nn12)C(N)=O` [Example 504, (2R)-2-({2-[5-chloro-2-(trifluoromethoxy)phenyl][1,2,4]triazolo[1,5-c]quinazolin-5-yl}amino)butanamide], the results for the IC50 against AHR [1] and on AHR [2] (setting [3]) were 3.65e-07 M and 37.9 nM, respectively.
For `COc1cccc(-c2nc3c4c(C)cccc4nc(NC4CCNC4=O)n3n2)c1` (stereo not shown) [Example 179, 3-{[2-(3-methoxyphenyl)-10-methyl[1,2,4]triazolo[1,5-c]quinazolin-5-yl]amino}pyrrolidin-2-one], the IC50 at AHR [1] was found to be 1.01e-07 M; on AHR [2] (read-out: AHR Antagonism Mouse IC50, mouse Hepa 1c1c7 cells, 200 μM kynurenic acid, 20 hours), 246 nM.
With `COc1ccc(-c2nc3c4c(C(F)(F)F)cccc4nc(N[C@@H]4CNCCNC4=O)n3n2)cc1` [Example 285, (6R)-6-{[2-(4-methoxyphenyl)-10-(trifluoromethyl)[1,2,4]triazolo[1,5-c]quinazolin-5-yl]amino}-1,4-diazepan-5-one], the IC50 stood at 1.36e-06 M against AHR [1] and 625 nM at AHR [2] (setting [3]).
For `Cc1ccccc1-c1nc2c3ccccc3nc(NC3CNCCNC3=O)n2n1` (stereo not shown) [Example 45, 6-{[2-(2-methylphenyl)[1,2,4]triazolo[1,5-c]quinazolin-5-yl]amino}-1,4-diazepan-5-one] the same measures were 1.19e-08 M and 14.5 nM.
Consider `CCn1cc(-c2nc3c4cccc(Br)c4nc(N[C@@H]4CCCCNC4=O)n3n2)c(C)n1` [Example 825, (3R)-3-{[7-bromo-2-(1-ethyl-3-methyl-1H-pyrazol-4-yl)[1,2,4]triazolo[1,5-c]quinazolin-5-yl]amino}azepan-2-one], for which the 50% inhibitory concentration (IC50) amounted to 3.72e-10 M at AHR [1] (firefly luciferase reporter) and 0.475 nM on AHR [2] (setting [4]).
Take `CS(=N)(=O)c1cccc(-c2nc3c4ccccc4nc(N[C@@H]4CCCCNC4=O)n3n2)c1` (single isomer, unassigned) [Example 659]: the figures for the IC50 against AHR [1] and at AHR [2] (setting [3]) were 1.62e-06 M and 4500 nM, respectively.
As for `O=C1NCCNC[C@H]1Nc1nc2c(Br)cccc2c2nc(-c3cnn(CC4CCC4)c3)nn12` [Example 982, (6R)-6-({7-bromo-2-[1-(cyclobutylmethyl)-1H-pyrazol-4-yl][1,2,4]triazolo[1,5-c]quinazolin-5-yl}amino)-1,4-diazepan-5-one], the IC50 against AHR [1] (firefly luciferase reporter) was determined as 9.42e-09 M; at AHR [2] (setting [4]) it was 20.6 nM.
In the case of `CCn1cc(-c2nc3c4ccccc4nc(N[C@@H]4CCCCNC4=O)n3n2)cn1` [Example 67], the IC50 at AHR [1] was found to be 6.43e-09 M; on AHR [2] (setting [3]), 5.53 nM.
Turning to `CC(C)[C@@H](Nc1nc2c(Br)cccc2c2nc(-c3cnn(C)c3)nn12)C(N)=O` [Example 578, N^2-[7-bromo-2-(1-methyl-1H-pyrazol-4-yl)[1,2,4]triazolo[1,5-c]quinazolin-5-yl]-D-valinamide], the IC50 against AHR [1] is 1.25e-08 M; at AHR [2] (setting [3]) it was 2.91 nM.
For `COc1ccc(-c2nc3c4cccc(F)c4nc(N[C@@H]4CNCCNC4=O)n3n2)cc1` [Example 426, (6R)-6-{[7-fluoro-2-(4-methoxyphenyl)[1,2,4]triazolo[1,5-c]quinazolin-5-yl]amino}-1,4-diazepan-5-one] the same measures were 1.84e-08 M and 14.3 nM.
For `COc1ccc(-c2nc3c4cc(C(C)C)ccc4nc(N[C@@H]4CCCCNC4=O)n3n2)cc1` [Example 392, (3R)-3-{[2-(4-Methoxyphenyl)-9-(propan-2-yl)[1,2,4]triazolo[1,5-c]quinazolin-5-yl]amino}azepan-2-one] the same measures were 2.38e-07 M and 31.5 nM.
Take `CC(C)[C@@H](Nc1nc2c(Br)cccc2c2nc(-c3cnn(C)c3)nn12)C(=O)NCCN1CCN(C)CC1` [Example 927, N^2-[7-bromo-2-(1-methyl-1H-pyrazol-4-yl)[1,2,4]triazolo[1,5-c]quinazolin-5-yl]-N-[2-(4-methylpiperazin-1-yl)ethyl]-D-valinamide]: the IC50 on AHR [1] (firefly luciferase reporter) stood at 6.5e-08 M; at AHR [2] (setting [4]), 34.4 nM.
As for `CCS(=O)(=O)c1cccc2c1nc(N[C@@H]1CNCCNC1=O)n1nc(-c3cnn(C)c3)nc21` [Example 942, (6R)-6-{[7-(ethanesulfonyl)-2-(1-methyl-1H-pyrazol-4-yl)[1,2,4]triazolo[1,5-c]quinazolin-5-yl]amino}-1,4-diazepan-5-one], the values for the half-maximal inhibitory concentration (IC50) on AHR [1] (firefly luciferase reporter) and at AHR [2] (setting [4]) were 7.67e-07 M and 4750 nM, respectively.
Take `O=C1NCCCC[C@H]1Nc1nc2ccccc2c2nc(-c3nc(C(F)(F)F)no3)nn12` [Example 136, (3R)-3-({2-[3-(trifluoromethyl)-1,2,4-oxadiazol-5-yl][1,2,4]triazolo[1,5-c]quinazolin-5-yl}amino)azepan-2-one]: the values for the IC50 against AHR [1] and on AHR [2] (setting [3]) were 3.09e-08 M and 9.58 nM, respectively.
Regarding `Cc1nn(C2CC2)c(C)c1-c1nc2c3cccc(C(F)(F)F)c3nc(N[C@@H]3CCCCNC3=O)n2n1` [Example 745, (3R)-3-{[2-(1-cyclopropyl-3,5-dimethyl-1H-pyrazol-4-yl)-7-(trifluoromethyl)[1,2,4]triazolo[1,5-c]quinazolin-5-yl]amino}azepan-2-one], the figures for the IC50 against AHR [1] and on AHR [2] (setting [3]) were 4.41e-09 M and 1.14 nM, respectively.
Regarding `Cn1cc(-c2nc3c4c(C(F)(F)F)cccc4nc(N[C@@H]4CCCCNC4=O)n3n2)cn1` [Example 173, (3R)-3-{[2-(1-methyl-1H-pyrazol-4-yl)-10-(trifluoromethyl)[1,2,4]triazolo[1,5-c]quinazolin-5-yl]amino}azepan-2-one], the results for the IC50 at AHR [1] and on AHR [2] (setting [3]) were 7.21e-08 M and 112 nM, respectively.
For `COc1cccc(-c2nc3c4c(C)cccc4nc(N[C@H]4CCCCNC4=O)n3n2)c1` [Example 181, (3S)-3-{[2-(3-methoxyphenyl)-10-methyl[1,2,4]triazolo[1,5-c]quinazolin-5-yl]amino}azepan-2-one] the same measures were 3.37e-07 M and 25.7 nM.
`Cn1cc(-c2nc3c4cccc(Br)c4nc(N[C@H]4CCCCNC4=O)n3n2)cn1` [Example 580, (3S)-3-{[7-bromo-2-(1H-methyl-1H-pyrazol-4-yl)[1,2,4]triazolo[1,5-c]quinazolin-5-yl]amino}azepan-2-one]: the IC50 at AHR [1] was 5.4e-08 M; at AHR [2] (setting [3]), 61.4 nM.
Turning to `C[C@@H](Nc1nc2c(Br)cccc2c2nc(-c3cnn(C)c3)nn12)C(=O)N1C[C@H]2C[C@@H]1CO2` [Example 898, (2R)-2-{[7-bromo-2-(1-methyl-1H-pyrazol-4-yl)[1,2,4]triazolo[1,5-c]quinazolin-5-yl]amino}-1-[(1R,4R)-2-oxa-5-azabicyclo[2.2.1]heptan-5-yl]propan-1-one], the IC50 is 1.2e-07 M against AHR [1] (firefly luciferase reporter) and 25.2 nM on AHR [2] (setting [4]).
In the same order, the values of `COc1ccc(-c2nc3c4cccc(Br)c4nc(N[C@H](C)C(=O)N4CCN(C)[C@H](C)C4)n3n2)cc1` [Example 913, (2R)-2-{[7-bromo-2-(4-methoxyphenyl)[1,2,4]triazolo[1,5-c]quinazolin-5-yl]amino}-1-[(3R)-3,4-dimethylpiperazin-1-yl]propan-1-one] are 1.32e-09 M and 1.71 nM.

(Values after patent publication US20230113037A1 (Bayer Aktiengesellschaft, priority 2019, published 2023).)
